Measured values published in patent US11472766B2, “Lipid nanoparticle composition” (Suzhou Abogen Biosciences Co., Ltd., priority 2020, dated 2022).

Tests used:
[1] = Lipid nanoparticle size by dynamic light scattering (Malvern Zetasizer Nano ZS); format: physicochemical; settings: LNP: cationic lipid/DSPC/cholesterol/PEG-lipid 50:10:38.5:1.5, hEPO mRNA; Table 3
Experimental: (§1) Briefly, a cationic lipid provided herein, DSPC, cholesterol, and PEG-lipid were solubilized in ethanol at a molar ratio of 50:10:38.5:1.5, and mRNA were diluted in 10 to 50 mM citrate buffer, pH=4. The LNPs were prepared at a total lipid to mRNA weight ratio of approximately 10:1 to 30:1 by mixing the ethanolic lipid solution with the aqueous mRNA solution at a volume ratio of 1:3 using a microfluidic apparatus, total flow rate ranging from 9-30 mL/min. Ethanol were thereby removed and replaced by DPBS using dialysis. Finally, the lipid nanoparticles were filtered through a 0.2 μm sterile filter.
(§2) Lipid nanoparticle size were determined by dynamic light scattering using a Malvern Zetasizer Nano ZS (Malvern UK) using a 173° backscatter detection mode. The encapsulation efficiency of lipid nanoparticles were determined using a Quant-it Ribogreen RNA quantification assay kit (Thermo Fisher Scientific, UK) according to the manufacturer's instructions.

[2] = Encapsulation efficiency of lipid nanoparticles (Quant-it Ribogreen RNA quantification assay); format: physicochemical; settings: LNP encapsulating hEPO mRNA; Table 3
Experimental: as §1, §2

[3] = test system: human erythropoietin (hEPO) mRNA; assay: Animal study: hEPO expression after tail vein injection of LNPs encapsulating hEPO mRNA (serum ELISA); format: in vivo; settings: hEPO level, female ICR mice, 0.5 mg/kg, 6 hours post administration, class symbols, Table 3
Experimental: Lipid nanoparticles comprising compounds 1-10 encapsulating human erythropoietin (hEPO) mRNA were systemically administered to 6-8 week old female ICR mice (Xipuer-Bikai, Shanghai) at 0.5 mg/kg dose by tail vein injection and mice blood were sampled at specific time points (e.g., 6 hours) post administration. In addition to the aforementioned tested groups, lipid nanoparticles comprising dilinoleylmethyl-4-dimethylaminobutyrate (DLin-MC3-DMA, usually abbreviated to MC3) encapsulating hEPO mRNA were similarly administered at the same dose to age and gender comparative groups of mice as a positive control.
Mice were euthanized by CO2 overdoses after the last sampling time point. Serum were separated from total blood by centrifugation at 5000 g for 10 minutes at 4° C., snap-frozen and stored at −80° C. for analysis. ELSA assay were carried out using a commercial kit (DEP00, R&D systems) according to manufacturer's instructions.
Characteristics of tested lipid nanoparticles, including hEPO expression levels (μg/ml) measured from the tested group are listed the tables below and plotted in FIG. 2.

polydispersity [1]	size nm [1] [nm]	Encapsulation Efficiency [2] [%]	Compound	Expression at 6 h (μg/ml) [3]
0.14	60.64	93.9	CCCCCCCCC(CCCCCC)COC(=O)CCCCCN(CCCCCC(=O)OCC(CCCCCC)CCCCCCCC)CCN(CCO)C1CCC(F)(F)CC1 (stereo not drawn) [Compound 23]	B (≥1 and <2)
0.071	80.46	95.9	CCCCCCCCC(CCCCCC)COC(=O)CCCCCN(CCCCCC(=O)OCC(CCCCCC)CCCCCCCC)CCN(CCCCCCO)C1CCC1 (stereo not drawn) [Compound 30]	B (≥1 and <2)
0.068	74.8	97.3	CCCCCCCCCCC(CCCCCC)COC(=O)CCCCCCN(CCCCCCC(=O)OCC(CCCCCC)CCCCCCCCCC)CCN(CCO)C1CCC1 (stereo not drawn) [Compound 43]	B (≥1 and <2)
0.103	62.38	95.3	CCCCCCCCCCCCC(CCCCCC)COC(=O)CCCN(CCCC(=O)OCC(CCCCCC)CCCCCCCCCCCC)CCN(CCO)C1CCC1 (stereo not drawn) [Compound 47]	C (≥0.1 and <1)
0.051	102.7	97.2	CCCCCCCCC(CCCCCC)COC(=O)CCCCCN(CCCCCC(=O)OCC(CCCCCC)CCCCCCCC)CCN(C)C1CCC(O)CC1 (stereo not drawn) [Compound 54]	D (<0.1)
0.109	95.51	96.7	CCCCCCCCC(CCCCCC)COC(=O)CCCCCN(CCCCCC(=O)OCC(CCCCCC)CCCCCCCC)CCN(CC)C1CCC(O)CC1 (stereo not drawn) [Compound 55]	C (≥0.1 and <1)
0.087	65.04	83.4	CCCCCCCCC(CCCCCC)COC(=O)CCCCCN(CCCCCC(=O)OCC(CCCCCC)CCCCCCCC)CCN(CCCCC)C1CCC(O)CC1 (stereo not drawn) [Compound 61]	A (≥2)
0.181	84.93	84.1	CCCCCCCCC(CCCCCC)COC(=O)CCCCCN(CCCCCC(=O)OCC(CCCCCC)CCCCCCCC)CCN(CCOC(C)=O)C1CCC1 (stereo not drawn) [Compound 64]	D (<0.1)
0.06	58.74	78.3	CCCCCCCCC(CCCCCCCC)COC(=O)CCCCCN(CCCCCC(=O)OCC(CCCCCCCC)CCCCCCCC)CCN(CCC)C1CCCCC1O (stereo not drawn) [Compound 69]	D (<0.1)
0.027	78.99	93.1	CCCCCCCCC(CCCCCCCC)COC(=O)CCCCCN(CCCCCC(=O)OCC(CCCCCCCC)CCCCCCCC)CCN(C)C1CCC(O)CC1 (stereo not drawn) [Compound 73]	C (≥0.1 and <1)
0.032	62.36	94.1	CCCCCCCCC(CCCCCCCC)COC(=O)CCCCCN(CCCCCC(=O)OCC(CCCCCCCC)CCCCCCCC)CCN(CCCCCC)C1CCC(O)CC1 (stereo not drawn) [Compound 75]	A (≥2)
0.091	44.47	92.4	CCCCCCCCC(CCCCCCCC)COC(=O)CCCCCN(CCCCCC(=O)OCC(CCCCCCCC)CCCCCCCC)CCN(CCO)C1CCC(F)(F)CC1 [Compound 78]	C (≥0.1 and <1)
0.298	67.01	100.3	CCCCCCCCC(CCCCCC)COC(=O)CCCCCN(CCCCCC(=O)OCC(CCCCCC)CCCCCCCC)CCN(CCO)C1CCN(C)CC1 (stereo not drawn) [Compound 94]	D (<0.1)
0.285	82.43	97.2	CCCCCCCCC(CCCCCC)COC(=O)CCCCCN(CCCCCC(=O)OCC(CCCCCC)CCCCCCCC)CCN1CCC(O)C1 (stereo not drawn) [Compound 95]	D (<0.1)
0.101	85.98	96.9	CCCCCCCCC(CCCCCC)COC(=O)CCCCCN(CCCCCC(=O)OCC(CCCCCC)CCCCCCCC)CCN1CCC(O)CC1 (stereo not drawn) [Compound 96]	D (<0.1)
0.1	66.06	100.2	CCCCCCCCC(CCCCCC)COC(=O)CCCCCN(CCCCCC(=O)OCC(CCCCCC)CCCCCCCC)CCN(C1CCCCC1)C1CCC(O)CC1 (stereo not drawn) [Compound 99]	C (≥0.1 and <1)

Further lines, the molecule ahead of its results:

Compound	polydispersity [1]	size nm [1] [nm]	Encapsulation Efficiency [2] [%]	Expression at 6 h (μg/ml) [3]
CCCCCCCCC(CCCCCC)COC(=O)CCCCCC(CCCCCC(=O)OCC(CCCCCC)CCCCCCCC)CN(CCO)C1CCCCCCC1 (stereo not drawn) [Compound 17]	0.209	57.6	18.18	D (<0.1)
CCCCCCCCC(CCCCCC)CC(=O)COCCCCN(CCCCCOC(=O)CC(CCCCCC)CCCCCCCC)CCN(CCO)C1CCCCC1 (stereo not drawn) [Compound 26]	0.125	55.51	96.7	C (≥0.1 and <1)
CCCCCCCCC(CCCCCC)C(CCC)OC(=O)CCCCCN(CCCCCC(=O)OC(CCC)C(CCCCCC)CCCCCCCC)CCN(CCO)C1CCC1 (stereo not drawn) [Compound 40]	0.081	66.39	99.2	C (≥0.1 and <1)
CCCCCCCCC(CCCCCC)C(=O)OCCCCCCN(CCCCCCOC(=O)C(CCCCCC)CCCCCCCC)CCN(CCO)C1CCC1 (stereo not drawn) [Compound 45]	0.032	71.47	96.6	A (≥2)
CCCCCCCCCCC(CCCCCCCCCC)COC(=O)CCCCCN(CCCCCC(=O)OCC(CCCCCCCCCC)CCCCCCCCCC)CCN(CCO)C1CCC1 [Compound 52]	0.054	69.18	95.70	A (≥2)
CCCCCCCCC(CCCCCCCC)COC(=O)CCCCCN(CCCCCC(=O)OCC(CCCCCCCC)CCCCCCCC)CCN(CCO)C1CC(c2ccccc2)C1 (stereo not drawn) [Compound 76]	0.096	54.94	91.71	C (≥0.1 and <1)
CCCCCCCCC(CCCCCC)COC(=O)CCCCCN(CCCCCC(=O)OCC(CCCCCC)CCCCCCCC)CCN1CC(O)C1 (stereo not drawn) [Compound 97]	0.204	66.69	96.8	D (<0.1)
CCCCCCCCC(CCCCCC)COC(=O)CCCCCN(CCCCCC(=O)OCC(CCCCCC)CCCCCCCC)C1CCN(CCO)CC1 (stereo not drawn) [Compound 98]	0.105	86.23	97.6	D (<0.1)
CCCCCCCCC(CCCCCCCC)COC(=O)COCCOCCN(CCOCCOCC(=O)OCC(CCCCCCCC)CCCCCCCC)CCN(CCO)C1CCC1 [Compound 103]	0.054	67.57	94.41	C (≥0.1 and <1)
CCCCCCCCC(CCCCCC)CNC(=O)CCCCCN(CCCCCC(=O)OCC(CCCCCC)CCCCCCCC)CCN(CCO)C1CCC1 (stereo not drawn) [Compound 106]	0.174	76.97	95.14	A (≥2)
CCCCCCCCC(CCCCCC)CNC(=O)CCCCCN(CCCCCC(=O)NCC(CCCCCC)CCCCCCCC)CCN(CCO)C1CCC1 (stereo not drawn) [Compound 107]	0.11	106.9	95.64	A (≥2)
CCCCCCCCC(CCCCCC)CNC(=O)CCCCCN(CCCCCC(=O)NCC(CCCCCC)CCCCCCCC)CCN(CCO)C1CCCCCC1 (stereo not drawn) [Compound 112]	0.111	49.51	95.9	C (≥0.1 and <1)
CCCCCCCCC(CCCCCC)CNC(=O)CCCCCN(CCCCCC(=O)NCC(CCCCCC)CCCCCCCC)CCN(CCO)C1CC1 (stereo not drawn) [Compound 119]	0.06	67.17	93.2	D (<0.1)
CCCCCCCCC(CCCCCC)CNC(=O)NCCCCN(CCCCNC(=O)NCC(CCCCCC)CCCCCCCC)CCN(CCO)C1CCC1 (stereo not drawn) [Compound 121]	0.134	71.02	94.5	B (≥1 and <2)
